Literature values, collected in patent publication US9374973B2, “Grass endophytes” (GRASSLANZ TECHNOLOGY LTD, priority 2003, dated 2016).

Experiments:
[1] = tested on: grazing sheep, cattle, deer and horses
[2] = tested on: black beetle (Heteronychus arator); settings: in vivo
[3] = tested on: Argentine stem weevil (Listronotus bonariensis); settings: in vivo

## CC(C)[C@H]1C(=O)N2CCC[C@H]2[C@]2(O)O[C@@](C)(NC(=O)[C@@H]3C=C4c5cccc6[nH]cc(c56)C[C@H]4N(C)C3)C(=O)N12 [Ergovaline]
[1]; bovine, in vivo
  Concentration in ryegrass pastures likely to elicit hyperthermia and depressed prolactin responses: above 0.5 ppm
[2]
  Effect on black beetle: deterrent

## CC(C)=C[C@H]1O[C@H]2[C@H]3O[C@@]34[C@H](CC[C@@]3(C)[C@@]4(O)CC[C@H]4Cc5c([nH]c6ccc7c(c56)C[C@@H]5[C@@H](C7=O)C(C)(C)OC5(C)C)[C@@]43C)O[C@@H]2C(C)(C)O1 [Lolitrem B]
[1]; grazing sheep, cattle, deer and horses
  Herbage concentration that may result in clinical symptoms of ryegrass staggers: > 2 ppm of herbage dry matter

## Cn1c(CCCN=C(N)N)cn2cccc2c1=O [Peramine]
[3]
  Effect on Argentine stem weevil: feeding deterrent

## lolitrem
[3]
  Effect on Argentine stem weevil: toxic
